Measured values as given in the RepoRT retention time repository (doi:10.1016/j.aca.2012.07.013).

Assay: RP, 50 × 2.1 mm, 1.7 µm, 0.5 mL/min, estimated dead time 0.22 min; A: 98% water + 2% acetonitrile + 0.1% formic acid, pH 3; B: 2% water + 98% acetonitrile + 0.1% formic acid, pH 3; gradient (min/%B) 0/0 0.5/0 4/60 8/100 9/100 9.2/0 10/0
Details: stereoisomer not certain

Compound	LC retention time [min]
CCCCCCCCCCCCCCC(=O)OCC(O)COP(=O)([O-])OCC[N+](C)(C)C (configuration not stated) [LPC (15:0)]	4.67
Nc1ccc(C(F)(F)F)cc1 [4-trifluoro methylaniline]	0.383
CCC=CCC=CCC=CCC=CCCCCCCC(=O)OC(CO)COP(=O)(O)OCCN (configuration not stated) [LPE (0:0/20:4(8Z,11Z,14Z,17Z))]	4.74
CCCCCCCCCCCCCCCCC(=O)OCC(O)COP(=O)([O-])OCC[N+](C)(C)C (configuration not stated) [LPC (17:0)]	5.3
CCC=CCC=CCC=CCC=CCC=CCC=CCCC(=O)OC(CO)COP(=O)(O)OCCN (configuration not stated) [LPE (0:0/22:6(4Z,7Z,10Z,13Z,16Z,19Z))]	4.71
CCCCCCCCCCCCCCCCCC(=O)OCC(O)COP(=O)([O-])OCC[N+](C)(C)C (configuration not stated) [LPC (18:0)]	5.64
CCCCCCCCCCCCCCCC(=O)OCC(O)COP(=O)([O-])OCC[N+](C)(C)C (configuration not stated) [LPC (16:0)]	4.98
Oc1ccc(C(c2ccc(O)cc2)(C(F)(F)F)C(F)(F)F)cc1 [bisphenol AF]	0.397
CCCCCC=CCC=CCC=CCC=CCCCC(=O)OC(CO)COP(=O)(O)OCCN (configuration not stated) [LPE (0:0/20:4(5Z,8Z,11Z,14Z)]	4.74
CCC=CCC=CCC=CCC=CCC=CCC=CCCC(=O)OCC(O)COP(=O)([O-])OCC[N+](C)(C)C (configuration not stated) [LPC (22:6)]	4.72

Results, then the molecule that gave them:

LC retention time [min]	Compound
3.08	CC(CCC(=O)NCCS(=O)(=O)O)C1CCC2C3C(O)CC4CC(O)CCC4(C)C3CC(O)C12C (configuration not stated) [taurocholic acid (TCA)]
3.45	CC(CCC(=O)NCCS(=O)(=O)O)C1CCC2C3C(O)CC4CC(O)CCC4(C)C3CCC12C (configuration not stated) [taurochenodeoxycholic acid (TCDCA)]
4.52	CCCCCCCCCCCCCCCCCCOCC(O)COP(=O)(O)OCC(N)C(=O)O (configuration not stated) [PS (O-18:0/0:0)]
3.78	CC(CCC(=O)NCC(=O)O)C1CCC2C3C(O)CC4CC(O)CCC4(C)C3CCC12C (configuration not stated) [glycochenodeoxycholic acid (GCDCA)]
3.78	CC(CCC(=O)NCC(=O)O)C1CCC2C3CCC4CC(O)CCC4(C)C3CC(O)C12C (configuration not stated) [glycodeoxycholic acid (GDCA)]
4.36	CCCCCCCCCCCCCC=CC(O)C([NH3+])COP(=O)([O-])O (configuration not stated) [sphingosine 1-phosphate]
4.71	CCCCCC=CCC=CCC=CCCCCCCC(=O)OCC(O)COP(=O)(O)OCCN (configuration not stated) [LPE (20:3)]
2.57	O=c1cc2oc3ccccc3oc-2cc1=O [dibenzo[1,4]dioxin-2,3-dione]
3.38	CC(CCC(=O)NCC(=O)O)C1CCC2C3C(O)CC4CC(OS(=O)(=O)O)CCC4(C)C3CCC12C (configuration not stated) [glycochenodeoxycholate-3-sulfate]
2.39	c1ccc(CSSCc2ccccc2)cc1 [dibenzyl disulfide]
3.36	CC(CCC(=O)NCC(=O)O)C1CCC2C3C(O)CC4CC(O)CCC4(C)C3CC(O)C12C (configuration not stated) [glycocholic acid (GCA)]
4.74	CCC=CCC=CCC=CCC=CCCCCCCC(=O)OCC(O)COP(=O)(O)OCCN (configuration not stated) [LPE (20:4(8Z,11Z,14Z,17Z)/0:0)]
